Molecular target: activated MPO (Homo sapiens (Human), UniProt P05164)
Test: Urate production by activated MPO incubated with xanthine, LC-MS
Type: biochemical
Conditions: activated MPO incubated with xanthine and titrated compound for 80 min, FIG. 3
Source text: The dotted line represents the urate formed in the presence of unactivated MPO.
We postulate that tissue hypoxia, the degree of which will be determined by the degree of inflammation and vascular function, has impact on plasma urate concentration. Myocardial ischemia results in accelerated loss of ATP and a corresponding buildup of urate levels in rat hearts (Am. J. Physiol. Heart Circ. Physiol., 2004, 286, H677-H684; J. Biol. Chem., 1995, 270, 18797-18803). Furthermore, increased myocardial production of urate contributes to systemic urate levels and correlates to NYHA class in heart failure patients (Circ. J., 2006, 70, 1006-1011).

Sequence of activated MPO (P05164 49-745): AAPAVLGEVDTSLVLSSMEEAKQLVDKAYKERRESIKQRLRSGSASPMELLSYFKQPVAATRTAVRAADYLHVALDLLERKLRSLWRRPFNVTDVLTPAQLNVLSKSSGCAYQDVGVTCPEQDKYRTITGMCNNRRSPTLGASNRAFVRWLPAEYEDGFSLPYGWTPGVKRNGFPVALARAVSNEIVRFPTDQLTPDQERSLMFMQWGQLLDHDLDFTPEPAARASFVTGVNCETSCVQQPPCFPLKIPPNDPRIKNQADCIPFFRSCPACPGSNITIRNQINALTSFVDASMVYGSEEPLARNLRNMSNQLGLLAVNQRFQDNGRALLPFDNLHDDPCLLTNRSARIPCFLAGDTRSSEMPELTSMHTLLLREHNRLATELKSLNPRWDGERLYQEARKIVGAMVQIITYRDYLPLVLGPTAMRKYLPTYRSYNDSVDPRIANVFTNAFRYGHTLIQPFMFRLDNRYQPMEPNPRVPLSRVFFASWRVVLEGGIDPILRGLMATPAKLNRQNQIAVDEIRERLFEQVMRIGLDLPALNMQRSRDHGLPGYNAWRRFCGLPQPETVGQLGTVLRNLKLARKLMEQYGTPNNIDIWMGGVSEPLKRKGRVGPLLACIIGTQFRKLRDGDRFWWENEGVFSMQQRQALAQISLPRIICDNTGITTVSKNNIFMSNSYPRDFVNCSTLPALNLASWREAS

SMILES: C[C@@H](N)c1cc(Cl)ccc1Cn1c(=S)[nH]c(=O)c2[nH]ccc21 [Example 3, 1-{2-[(1R)-1-Aminoethyl]-4-chlorobenzyl}-2-thioxo-1,2,3,5-tetrahydro-4H-pyrrolo[3,2-d]pyrimidin-4-one]
- Inhibition of urate production by activated MPO: concentration-dependently inhibited
